Test results taken from the supplement of paper PMC9265050, “Inhibition of RNA Binding in SND1 Increases the Levels of miR-1-3p and Sensitizes Cancer Cells to Navitoclax” (Cancers, 2022).

Tested on: SW480
Assay: drug sensitivity score (DSS, integrated dose-response area); higher = more sensitive (stronger viability reduction); extreme values may be limits of the assay
Method in brief: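 Viability of induced SW480 cells carrying control or SND1-targeting shRNA was read by CellTiter-Glo 72 h after plating at 1000 cells per well onto 384-well plates holding 525 small-molecule inhibitors at five concentrations. Induction used 0.1 µg/mL doxycycline for 7 days. Each drug sensitivity score integrates the area under a fitted non-linear dose–response model.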

[1] = shRNA: SND1 shRNA1 (SND1 silenced)
[2] = shRNA: SND1 shRNA2 (SND1 silenced)
[3] = shRNA: control shRNA (non-targeting)

Compound | drug sensitivity score [1] | drug sensitivity score [2] | drug sensitivity score [3]
COc1cc2c(NC3CCN(C(C)C)CC3)nc(N3CCC(F)(F)CC3)nc2cc1OCCCN1CCCC1 [UNC0642] | 4.7 DSS | 8.7 DSS | 8.4 DSS
O=C(c1ccc(C(=O)N2CCC(N3CCCC3)CC2)c(Nc2ccccc2)c1)N1CCC(N2CCCC2)CC1 [UNC1215] | 2.6 DSS | 1.9 DSS | 1.1 DSS
CCCCNc1ncc(C(=O)NCc2ccc(-n3ccnc3)cc2)c(NC2CCC(O)CC2)n1 (configuration not stated) [UNC2881] | 0 DSS | 0 DSS | 0 DSS
NC(=O)c1cccc(-c2cccc(OC(=O)NC3CCCCC3)c2)c1 [URB597] | 0.2 DSS | – | 2.6 DSS
CC(C)Nc1cc(-c2c[nH]c(C(=O)N[C@H](CO)c3cccc(Cl)c3)c2)c(Cl)cn1 [Ulixertinib] | 10.2 DSS | 2.3 DSS | 7.6 DSS
Cn1ncc(Cl)c1-c1cc(C(=O)N[C@H](CN)Cc2ccc(F)c(F)c2)oc1Cl [Uprosertib] | 0 DSS | 0.3 DSS | 0.2 DSS
Oc1ncc(N(CCCl)CCCl)c(O)n1 [Uramustine] | 0 DSS | 0.1 DSS | 0 DSS
CS(=O)(=O)c1ccc(-c2cnc(N)c(C(=O)Nc3ccccc3)n2)cc1 [VE-821] | 0 DSS | – | 0.8 DSS
O=C(O)CC1CC(c2ccccc2)=NO1 (configuration not stated) [VGX-1027] | 0.2 DSS | 2.3 DSS | 0 DSS
CNC(=O)c1ccccc1Nc1cc(Nc2ccc(N3CCOCC3)cc2OC)ncc1C(F)(F)F [VS-4718] | 4.8 DSS | 3.8 DSS | 4.1 DSS
O=c1ncn2nc(Sc3ccc(F)cc3F)ccc2c1-c1c(Cl)cccc1Cl [VX 745] | 1.4 DSS | – | 3.4 DSS
CCCC(CCC)C(=O)O [Valproic acid] | 0 DSS | – | 0 DSS
CCCCC(=O)OCC(=O)[C@]1(O)Cc2c(O)c3c(c(O)c2[C@@H](O[C@H]2C[C@H](NC(=O)C(F)(F)F)[C@H](O)[C@H](C)O2)C1)C(=O)c1c(OC)cccc1C3=O [Valrubicin] | 8.7 DSS | 7.8 DSS | 8.2 DSS
COc1cc2/c(=N/c3ccc(Br)cc3F)nc[nH]c2cc1OCC1CCN(C)CC1 [Vandetanib] | 2.1 DSS | 5.8 DSS | 5.9 DSS
CCc1c(C(=O)C(N)=O)c2c(OCC(=O)O)cccc2n1Cc1ccccc1 [Varespladib] | 0 DSS | 1.1 DSS | 0 DSS
C[C@@H]1COC(Nc2ccc3ncnc(Nc4ccc(OCc5nccs5)c(Cl)c4)c3c2)=N1 [Varlitinib] | 0.4 DSS | 1.2 DSS | 3.5 DSS
Clc1ccc(Nc2nnc(Cc3ccncc3)c3ccccc23)cc1 [Vatalanib] | 1.8 DSS | 6.5 DSS | 2 DSS

Compound | drug sensitivity score [1] | drug sensitivity score [2] | drug sensitivity score [3]
C[C@]1(c2nc3c(C(N)=O)cccc3[nH]2)CCCN1 [Veliparib] | 0 DSS | 0 DSS | 0 DSS
CCCS(=O)(=O)Nc1ccc(F)c(C(=O)c2c[nH]c3ncc(-c4ccc(Cl)cc4)cc23)c1F [Vemurafenib] | 0 DSS | 0.1 DSS | 0 DSS
CC1(C)CCC(CN2CCN(c3ccc(C(=O)NS(=O)(=O)c4ccc(NCC5CCOCC5)c([N+](=O)[O-])c4)c(Oc4cnc5[nH]ccc5c4)c3)CC2)=C(c2ccc(Cl)cc2)C1 [Venetoclax] | 0 DSS | 0 DSS | 0 DSS
O=C(/C=C\n1cnc(-c2cc(C(F)(F)F)cc(C(F)(F)F)c2)n1)NNc1ccccn1 [Verdinexor] | 8 DSS | 4.5 DSS | 8.6 DSS
CC[C@]1(O)C[C@@H]2CN(CCc3c([nH]c4ccccc34)[C@@](C(=O)OC)(c3cc4c(cc3OC)N(C)[C@H]3[C@@](O)(C(=O)OC)[C@H](OC(C)=O)[C@]5(CC)C=CCN6CC[C@]43[C@@H]65)C2)C1 [Vinblastine] | 9.6 DSS | 8 DSS | 15.4 DSS
CC[C@]1(O)C[C@H]2CN(CCc3c([nH]c4ccccc34)[C@@](C(=O)OC)(c3cc4c(cc3OC)N(C=O)[C@H]3[C@@](O)(C(=O)OC)[C@H](OC(C)=O)[C@]5(CC)C=CCN6CC[C@]43[C@@H]65)C2)C1 [Vincristine] | 10.1 DSS | 9.7 DSS | 16.6 DSS
CCC1=C[C@@H]2CN(C1)Cc1c([nH]c3ccccc13)[C@@](C(=O)OC)(c1cc3c(cc1OC)N(C)[C@H]1[C@@](O)(C(=O)OC)[C@H](OC(C)=O)[C@]4(CC)C=CCN5CC[C@]31[C@@H]54)C2 [Vinorelbine] | 19.3 DSS | 19.5 DSS | 22.4 DSS
CS(=O)(=O)c1ccc(C(=O)Nc2ccc(Cl)c(-c3ccccn3)c2)c(Cl)c1 [Vismodegib] | 0 DSS | 0 DSS | 0 DSS
CC[C@@H]1C(=O)N(C)c2cnc(Nc3ccc(C(=O)N[C@H]4CC[C@H](N5CCN(CC6CC6)CC5)CC4)cc3OC)nc2N1C(C)C [Volasertib] | 13.1 DSS | 14.4 DSS | 14.8 DSS
O=C(CCCCCCC(=O)Nc1ccccc1)NO [Vorinostat] | 7.8 DSS | 8 DSS | 9.3 DSS
CCn1c(=O)c(-c2cc[nH]n2)cc2c(C)nc(N)nc21 [Voxtalisib] | 7.4 DSS | 6.5 DSS | 5.7 DSS
Oc1nc(-c2ccc(C(F)(F)F)cc2)nc2c1CSCC2 [XAV-939] | 3.9 DSS | 0 DSS | 3.2 DSS
O=C(Nc1ccc(-c2ccnc(Nc3ccc(N4CCOCC4)cc3)n2)cc1)C1CCCN1 (configuration not stated) [XL019] | 0.1 DSS | – | 1.7 DSS
COc1cc2c(Nc3ccc(Cl)c(Cl)c3F)ncnc2cc1OC[C@@H]1C[C@@H]2CN(C)C[C@@H]2C1 [XL-647] | 2.1 DSS | 3.1 DSS | 2.4 DSS
COCC[n+]1c2c(n(Cc3cnccn3)c1C)C(=O)c1ccccc1C2=O [YM155] | 15.5 DSS | 8.8 DSS | 21.4 DSS
FC(F)c1nc2ccccc2n1-c1nc(N2CCOCC2)nc(N2CCOCC2)n1 [ZSTK474] | 7.3 DSS | 5.1 DSS | 4 DSS
c1ccc(Cn2c(-c3ccc(OC[C@H](C4CCNCC4)n4c(-c5ccccc5)nc5ccccc54)cc3)nc3ccccc32)cc1 [deltarasin] | 5.7 DSS | 6.6 DSS | 4.4 DSS
